Several values for one entry are separate records, joined by “and”; a condition that tells them apart may be missing. Identical values can stand only once. Entries after “also recorded” stand apart in the source; their conditions may differ. Like-named read-outs stand apart in the source and are kept apart here.
What was measured:
[1] = system: pseudotyped reporter viruses carrying the NL4-3 gag-pol sequence (wild type); assay type: cell-based, HIV-1
[2] = in vivo; cited from earlier work
[3] = system: Pt2019-1-1 patient-derived drug-resistant HIV-1 isolate; assay type: cell-based
[4] = system: Pt2019-1-2 patient-derived drug-resistant HIV-1 isolate; assay type: cell-based

SMILES: Cc1cn([C@H]2C=C[C@@H](CO)O2)c(=O)[nH]c1=O [d4T, stavudine]
- % GFP-positive target cells [1]: 6.83% and 7.04% and 5.74%
- Cmax relative to IC50 measured in this system [1]: close to or below; also recorded: below
- Drug resistance index (replication with drug / without drug) [1]: 0.325
- Mean % GFP-positive target cells [1]: 6.54%

SMILES: O=c1[nH]cnc2c1ncn2[C@H]1CC[C@@H](CO)O1 [ddI, didanosine]
- Cmax relative to IC50 measured in this system [1]: close to or below
- Cmax relative to IC90 measured in this system [1]: below
- Cmax [2]: 6.78 µM

SMILES: O=C1Nc2ccc(Cl)cc2[C@@](C#CC2CC2)(C(F)(F)F)O1 [EFV, efavirenz]
- Cmin/IC50 ratio (published Cmin to IC50 measured in this system) [1]: > 1,000 fold

SMILES: Nc1ccn([C@@H]2CS[C@H](CO)O2)c(=O)n1 [3TC, lamivudine]
- Drug Resistance Index [1]: 0.002
- Replication Index (replication capacity index x drug resistance index) [1]: 0.002
- Drug Resistance Index [3]: 1
- Replication Index ([3]; Pt2019-1-1, concn 12.5 (head prints p.M)): 0.42
- Drug Resistance Index ([3]; Pt2019-1-1, concn 12.5 (head prints p.M; text 12.5 μM)): 0.8
- Replication Index ([4]; concn 12.5 (head prints p.M)): 0.00053
- Drug Resistance Index ([4]; concn 12.5 (head prints p.M; text 12.5 μM)): 0.001

SMILES: Cc1cn([C@H]2C[C@H](N=[N+]=[N-])[C@@H](CO)O2)c(=O)[nH]c1=O [AZT, zidovudine]
- % GFP-positive target cells [1]: 7.61% and 6.70% and 7.59% and 6.71%
- Drug resistance index (replication with drug / without drug) [1]: 0.356
- Mean % GFP-positive target cells [1]: 7.15%
